In publication PMC5325082 (Molecular Pharmacology, 2017):

Assays:
[1] = system: α9χW55Tα10χW55T; type: binding, rat
[2] = target: α9χW55Tα10χ (UniProt P23979+P43144+Q9JLB5, L231I/L232I/W82T); type: binding, rat
[3] = target: homomeric α10χ (UniProt P23979+Q9JLB5, L231I/L232I); type: binding, rat
[4] = system: α9χY190Tα10χ; type: binding, rat
[5] = system: α9χα10χY190T; type: binding, rat
[6] = system: homomeric α9χW55T receptors; type: binding, rat
[7] = system: homomeric α10χW55T receptors; type: binding, rat
[8] = system: α9χY190T (homomeric); type: binding, rat
[9] = system: α10χY190T (homomeric); type: binding, rat
[10] = system: α9χY190Tα10χY190T (heteromeric double mutant); type: binding, rat
[11] = target: T1, α9χα10χ (α9 and α10 extracellular domains fused to 5-HT3A) (UniProt P23979+P43144+Q9JLB5, L231I/L232I); assay: [3H]-α-BTX radioligand binding, membranes of transfected tsA201 cells; set-up: species or system rat
T1 construct: the extracellular N-terminal domain of the α9 or α10 subunit; expressed in transfected cells; host or cells: tsA201 cells (HEK293-derived), membrane preparation
Method: (§1) Chimeric subunit cDNAs containing the extracellular N-terminal domain of the α9 or α10 subunit fused to the transmembrane and intracellular domain of the mouse 5-HT3A subunit have been described previously ([Baker et al., 2004]). The mammalian cell line tsA201 (derived from the human embryonic kidney 293 cell line) was obtained from Dr. William Green (University of Chicago, Chicago). Cells were cultured in Dulbecco’s modified Eagle’s medium (Invitrogen, Paisley, United Kingdom) containing 2 mM L-GlutaMAX (Invitrogen) plus 10% heat-inactivated fetal calf serum (Sigma, Poole, United Kingdom) with penicillin (100 U/ml) and streptomycin (100 µg/ml) and were maintained in a humidified incubator containing 5% CO2 at 37°C. Cells were transiently transfected using Effectene transfection reagent (QIAGEN, Crawley, United Kingdom) according to the manufacturer’s instructions. In all cases, cells were transfected overnight and assayed for expression approximately 40–48 hours after transfection. To ensure that the levels of radioligand binding were not influenced by differences in the amount of subunit cDNA expressed, the amount of each subunit plasmid DNA and also the total amount of plasmid DNA were kept constant when subunits were expressed singly and in combination. This was achieved by the inclusion of empty plasmid expression vector when single subunits were transfected.
(§2) Binding studies with [^3H]-α-bungarotoxin (α-BTX) in cell membrane preparations were performed essentially as described previously ([Lansdell and Millar, 2000]; [Harkness and Millar, 2002]). Membranes (typically, 10–100 µg of protein) were incubated with radioligand (final concentration 20 nM) for 150 minutes at 4°C in a total volume of 300 µl in the presence of protease inhibitors leupeptin (2 µg/ml) and pepstatin (1 µg/ml). Our standard protocol for determining nonspecific binding was the addition of 1 mM carbachol, 1 mM nicotine, and 10 µM methyllycaconitine to triplicate samples. […] In all cases the levels of specific binding were determined by subtracting the level of nonspecific binding from the total binding (both of which were determined in triplicate). The data were determined as means of three independent experiments, each performed in triplicate. Radioligand binding was assayed by filtration onto 0.5% polyethylenimine-presoaked Whatman GF/B filters (Sigma-Aldrich, Dorset, England) followed by rapid washing (typically, five washes, each of 4 ml) with ice-cold 10 mM phosphate buffer using a Brandel cell harvester, and radioactivity was determined by scintillation counting. […] Protein concentrations were determined using bovine serum albumin standards (Bio-Rad, Hercules, CA).

[12] = target: T2, α9χα10χW55T (UniProt P23979+P43144+Q9JLB5, L231I/L232I/W81T); assay: as above; set-up: species or system rat
T2 construct: containing the extracellular N-terminal domain of the α9 or α10 subunit fused to the transmembrane and intracellular domain of the mouse 5-HT3A subunit; mouse 5-HT3A subunit transmembrane and intracellular domain (fusion partner); expressed in transfected cells; host or cells: tsA201 (derived from human embryonic kidney 293), transient transfection; membrane preparations
Method: as §1, §2

For α-bungarotoxin [[^3H]-α-BTX], the “Specific binding of [3H]-α-BTX” value [1] was “binding levels similar to those observed with either α10χ or α10χW55T when expressed alone”, the “Specific binding of [3H]-α-BTX” value [2] was “binding levels similar to those observed with either α10χ or α10χW55T when expressed alone” and the “Specific binding of [3H]-α-BTX” value [3] was 1.4 ± 0.5 fmol/mg. The “Specific binding of [3H]-α-BTX, fold higher than homomeric α10χ” value [4] was 4 fold, the “Specific binding of [3H]-α-BTX, fold lower than wild-type α9χα10χ” value [4] was 6 fold and the “Specific binding of [3H]-α-BTX, fold lower than wild-type α9χα10χ” value [5] was 4 fold. For the same substance, the “Specific binding of [3H]-α-BTX” value [6] was “no detectable specific binding”, the “Specific binding of [3H]-α-BTX” value [7] was 2.5 ± 0.6 fmol/mg and the “Specific binding of [3H]-α-BTX” value [8] was “complete loss of specific binding”. For the same substance, the “Specific binding of [3H]-α-BTX” value [9] was “complete loss of specific binding”, the “Specific binding of [3H]-α-BTX” value [10] was “complete loss of specific binding” and the “Specific binding of [3H]-α-BTX, fold higher than α9χ expressed alone” value [11] was 6 fold. For the same substance, the “Specific binding of [3H]-α-BTX” value [12] was “specific binding levels similar to those observed with wild-type heteromeric α9χα10χ receptors”.
